Measurements: patent US7235563B2, “Spirocyclic compounds useful as modulators of nuclear hormone receptor function” (Bristol-Myers Squibb Company, priority 2004, dated 2007)
Where two headings read alike, the source gives them in different places.

Tests used:
[1] = biological target: T1, AR (Rattus norvegicus, UniProt P15207)
T1 sequence (P15207 1-902): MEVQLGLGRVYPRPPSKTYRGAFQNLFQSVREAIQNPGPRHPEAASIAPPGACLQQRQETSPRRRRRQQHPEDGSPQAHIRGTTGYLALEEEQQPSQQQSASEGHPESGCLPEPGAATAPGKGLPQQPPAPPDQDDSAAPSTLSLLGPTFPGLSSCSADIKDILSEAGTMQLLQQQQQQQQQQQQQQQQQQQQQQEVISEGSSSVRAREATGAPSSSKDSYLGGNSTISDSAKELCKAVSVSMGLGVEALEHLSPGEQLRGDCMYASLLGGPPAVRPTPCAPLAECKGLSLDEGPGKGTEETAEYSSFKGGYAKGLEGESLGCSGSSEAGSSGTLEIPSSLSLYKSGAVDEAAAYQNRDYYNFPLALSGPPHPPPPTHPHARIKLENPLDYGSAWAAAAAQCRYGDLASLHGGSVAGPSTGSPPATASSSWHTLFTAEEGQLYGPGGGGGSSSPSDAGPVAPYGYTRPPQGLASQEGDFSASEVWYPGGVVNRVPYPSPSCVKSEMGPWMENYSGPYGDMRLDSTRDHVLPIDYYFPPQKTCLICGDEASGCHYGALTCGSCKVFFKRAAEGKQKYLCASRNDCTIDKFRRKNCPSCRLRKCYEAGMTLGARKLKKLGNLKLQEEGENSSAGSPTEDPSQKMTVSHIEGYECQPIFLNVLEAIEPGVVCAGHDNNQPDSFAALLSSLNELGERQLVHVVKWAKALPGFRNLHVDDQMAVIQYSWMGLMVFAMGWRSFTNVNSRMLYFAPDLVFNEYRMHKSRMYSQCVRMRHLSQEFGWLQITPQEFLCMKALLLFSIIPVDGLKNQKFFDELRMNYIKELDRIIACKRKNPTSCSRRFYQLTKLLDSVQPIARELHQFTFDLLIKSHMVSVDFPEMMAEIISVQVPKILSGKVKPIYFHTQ
Text: The basis of this assay lies in the well-defined action of androgenic agents on the maintenance and growth of muscle tissues and sexual accessory organs in animals and man. […] J. Anat. […] I. Quantitative data” Boll.-Soc. Ital. Biol. Sper. […] II. Electron-microscopic observations” Boll.-Soc. Ital. Biol. Sper. […] Castration results in rapid involution and atrophy of the prostate and seminal vesicles. This effect can be reversed by exogenous addition of androgens. Since both the levator ani muscle and the male sex organs are the tissues most responsive to the effects of androgenic agents, this model is used to determine the androgen dependent reversal of atrophy in the levator ani muscle and the sex accessory organs in immature castrated rats. […] Control vehicle • 2.
The gain and loss of sexual organ weight reflect the changes of the cell number (DNA content) and cell mass (protein content), depending upon the serum androgen concentration. […] Therefore, measurement of organ wet weight is sufficient to indicate the bioactivity of androgens and androgen antagonist.

[2] = biological target: T1, AR; remark: listed apart in the source
[3] = biological target: glucocorticoid receptor (Homo sapiens, UniProt P04150); details: concentration of ≦10 μM; 10 ng/ml PMA; A549 cells
Chain of glucocorticoid receptor (P04150 whole entry): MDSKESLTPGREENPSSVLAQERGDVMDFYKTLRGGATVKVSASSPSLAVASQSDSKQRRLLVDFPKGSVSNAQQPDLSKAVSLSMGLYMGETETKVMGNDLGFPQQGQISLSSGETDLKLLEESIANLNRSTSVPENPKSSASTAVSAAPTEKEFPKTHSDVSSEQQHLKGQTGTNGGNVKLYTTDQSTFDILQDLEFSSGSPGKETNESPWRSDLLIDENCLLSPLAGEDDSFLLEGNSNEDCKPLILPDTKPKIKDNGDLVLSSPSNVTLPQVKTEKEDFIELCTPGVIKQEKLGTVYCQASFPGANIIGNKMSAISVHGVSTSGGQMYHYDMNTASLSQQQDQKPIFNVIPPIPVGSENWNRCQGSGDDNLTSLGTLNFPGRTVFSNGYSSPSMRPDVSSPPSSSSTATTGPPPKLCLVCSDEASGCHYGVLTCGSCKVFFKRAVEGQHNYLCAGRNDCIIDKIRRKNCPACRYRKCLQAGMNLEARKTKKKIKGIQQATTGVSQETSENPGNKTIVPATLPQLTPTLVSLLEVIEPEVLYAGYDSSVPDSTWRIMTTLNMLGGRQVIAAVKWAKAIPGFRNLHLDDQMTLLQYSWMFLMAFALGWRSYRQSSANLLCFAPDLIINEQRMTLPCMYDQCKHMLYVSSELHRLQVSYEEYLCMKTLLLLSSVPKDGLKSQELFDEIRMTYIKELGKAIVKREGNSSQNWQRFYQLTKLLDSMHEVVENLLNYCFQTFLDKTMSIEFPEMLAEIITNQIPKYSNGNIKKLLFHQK
Description: Cells are plated the day before the assay at approximately 40000 cells/well. […] Activity is measured by analysis in a luminometer as compared to control experiments treated with buffer or dexamethasome.

[4] = test system: wild type AR (MDA 453 cells); details: read-out: Kd for [3H]-DHT, Scatchard analysis
Description: For the saturation analysis, the difference between the total binding and the non-specific binding, is defined as specific binding.
[formula] After correcting for non-specific binding, IC50 values are determined. […]

Molecule: CCC(=O)O[C@H]1CC[C@H]2[C@@H]3CCC4=CC(=O)CC[C@]4(C)[C@H]3CC[C@]12C [TP, testosterone propionate]
- potency relative to free T ([1]; TP versus free T): 10-30 fold
- EC50 (increase in organ weight) ([1]; castrated rats, dosing for 3 days): ~0.03 mg
- potency relative to free T ([2]; TP versus free T): 10-30 fold
- ED80 ([2]; immature castrated rat model): 0.1 mg
- EC50 (increase in organ weight) ([2]; immature castrated rats, dosing for 3 days): ~0.03 mg

Molecule: C[C@@H]1C[C@H]2[C@@H]3CCC4=CC(=O)C=C[C@]4(C)[C@@]3(F)[C@@H](O)C[C@]2(C)[C@@]1(O)C(=O)CO [dexamethasone]
- suppression of activity (% inhibition of the reporter system vs buffer control with PMA) [3]: 65%

Molecule: tritiated dihydrotestosterone [[^3H]-DHT]
- Kd [4]: 0.7 nM
